The source made the active and inactive calls. The calls are words filed in the database; no cut-off is given here.

For assay [1], the system named is Cenchrus americanus. Description: Induction of systemic acquired resistance against Sclerospora graminicola in Cenchrus americanus cultivar 7042S assessed as protection against downy mildew disease at 20 mM applied to seeds prior to sowing followed by inoculation on 2 day old seedling measured on day 30 in green house conditions (reference value: 3%). The assay is classed as functional.

Assay [2] has as its system Cenchrus americanus. Description: Increase in seed vigor in Cenchrus americanus cultivar 7042S at 20 mM incubated for 6 hr followed by sowing measured at 7-day old seedling stage relative to control. The class given is functional, organism-based.
Assay [3] has as its system Cenchrus americanus. The assay is described as follows: Stimulation of seed germination in Cenchrus americanus cultivar 7042S at 20 mM incubated for 6 hr followed by sowing measured at 7-day old seedling stage (reference value: 88%). The assay is classed as functional.
In assay [4] the test system is Cenchrus americanus. Description: Induction of systemic acquired resistance against Sclerospora graminicola in Cenchrus americanus cultivar 7042S assessed as protection against downy mildew disease at 20 mM applied to seeds prior to sowing and to foliar of 7 day old seedling inoculated on day 2 measured on day 30 in field conditions (reference value: 3%). The class given is functional.

Assay [5] concerns Cenchrus americanus. Description: Induction of systemic acquired resistance against Sclerospora graminicola in Cenchrus americanus cultivar 7042S assessed as protection against downy mildew disease at 20 mM applied to foliar of 7 day old seedling inoculated on day 2 measured on day 30 in field conditions (reference value: 2%). The assay is classed as functional.
Assay [6] relates to Cenchrus americanus. Description: Effect on growth parameter in disease-susceptible Cenchrus americanus cultivar 7042S assessed as yield at 20 mM applied to seeds prior to sowing (reference value: 1209 +/- 9 kg/ha). The class given is functional.
Assay [7] deals with Cenchrus americanus. Description: Effect on growth parameter in disease-susceptible Cenchrus americanus cultivar 7042S assessed as girth of ear at 20 mM applied to seeds prior to sowing measured after 60 days (reference value: 3.6 +/- 0.9 cm). The assay is classed as functional.
The test system of assay [8] is Cenchrus americanus. The assay is described as follows: Effect on growth parameter in disease-susceptible Cenchrus americanus cultivar 7042S assessed as length of ear at 20 mM applied to seeds prior to sowing measured after 60 days (reference value: 9.4 +/- 0.8 cm). The class given is functional.
The test system of assay [9] is Cenchrus americanus. The assay is described as follows: Effect on growth parameter in disease-susceptible Cenchrus americanus cultivar 7042S assessed as increase in prodcutive tillers at 20 mM applied to seeds prior to sowing measured after 60 days relative to control. The assay is classed as functional, organism-based.
The subject of assay [10] is Cenchrus americanus. Description: Stimulation of flowering in downy mildew disease-susceptible Cenchrus americanus cultivar 7042S assessed as days required for 50% flowering at 20 mM applied to seeds prior to sowing measured after 60 days (reference value: 44 +/- 0.7 days ). The assay is classed as functional.
In assay [11] the test system is Cenchrus americanus. The assay is described as follows: Stimulation of growth in downy mildew disease-susceptible Cenchrus americanus cultivar 7042S assessed as plant height at 20 mM applied to seeds prior to sowing measured after 60 days (reference value: 58.5 cm). The assay is classed as functional.
The test system of assay [12] is Cenchrus americanus. The assay is described as follows: Induction of systemic acquired resistance against Sclerospora graminicola in Cenchrus americanus cultivar 7042S assessed as protection against downy mildew disease at 20 mM applied to seeds prior to sowing followed by inoculation on 2 day old seedling and challenge-inoculation to the inflorescence primordia at boot leaf stage measured on day 60 in green house condition relative to control. The class given is functional.

The test system of assay [13] is Cenchrus americanus. Description: Induction of systemic acquired resistance against Sclerospora graminicola in Cenchrus americanus cultivar 7042S assessed as protection against downy mildew disease at 20 mM applied to seeds prior to sowing followed by inoculation on 2 day old seedling and challenge-inoculation to the nodal tiller measured on day 60 in green house condition relative to control. The assay is classed as functional.

Assay [14] concerns Cenchrus americanus. Description: Induction of systemic acquired resistance against Sclerospora graminicola in Cenchrus americanus cultivar 7042S assessed as protection against downy mildew disease at 20 mM applied to seeds prior to sowing followed by inoculation at cleoptile stage at day 6 post seedling emergence measured on day 30 in green house conditions relative to control. The assay is classed as functional.

Assay [15] deals with Cenchrus americanus. Description: Effect on growth parameter in disease-susceptible Cenchrus americanus cultivar 7042S assessed as weight of 1000 seeds at 20 mM applied to seeds prior to sowing (reference value: 7.4 +/- 1.4 g). The assay is classed as functional.
Assay [16] concerns Cenchrus americanus. The assay is described as follows: Induction of systemic acquired resistance against Sclerospora graminicola in Cenchrus americanus cultivar 7042S assessed as protection against downy mildew disease at 20 mM applied to seeds prior to sowing followed by inoculation on 2 day old seedling measured on day 30 in field conditions (reference value: 3%). The assay is classed as functional.

Assay [17] relates to Cenchrus americanus. Description: Induction of systemic acquired resistance against Sclerospora graminicola in Cenchrus americanus cultivar 7042S assessed as protection against downy mildew disease at 20 mM applied to seeds prior to sowing followed by inoculation at cleoptile stage at day 5 post seedling emergence measured on day 30 in green house conditions relative to control. The class given is functional.

For assay [18], the system named is Cenchrus americanus. Description: Induction of systemic acquired resistance against Sclerospora graminicola in Cenchrus americanus cultivar 7042S assessed as protection against downy mildew disease at 20 mM applied to seeds prior to sowing followed by inoculation at cleoptile stage at day 4 post seedling emergence measured on day 30 in green house conditions relative to control. The class given is functional.

The subject of assay [19] is Cenchrus americanus. Description: Induction of systemic acquired resistance against Sclerospora graminicola in Cenchrus americanus cultivar 7042S assessed as protection against downy mildew disease at 20 mM applied to seeds prior to sowing followed by inoculation at cleoptile stage at day 3 post seedling emergence measured on day 30 in green house conditions relative to control. The assay is classed as functional.

Assay [20] deals with Cenchrus americanus. The assay is described as follows: Induction of systemic acquired resistance against Sclerospora graminicola in Cenchrus americanus cultivar 7042S assessed as protection against downy mildew disease at 20 mM applied to seeds prior to sowing followed by inoculation at cleoptile stage at day 2 post seedling emergence measured on day 30 in green house conditions relative to control. The assay is classed as functional.

The test system of assay [21] is Cenchrus americanus. The assay is described as follows: Induction of systemic acquired resistance against Sclerospora graminicola in Cenchrus americanus cultivar 7042S assessed as protection against downy mildew disease at 20 mM applied to seeds prior to sowing followed by inoculation at cleoptile stage at day 1 post seedling emergence measured on day 30 in green house conditions relative to control. The assay is classed as functional.

The subject of assay [22] is Cenchrus americanus. The assay is described as follows: Effect on seed vigor in Cenchrus americanus cultivar 7042S assessed as vigor index at 20 mM incubated for 6 hr followed by sowing measured at 7-day old seedling stage (reference value: 990). The class given is functional.
For assay [23], the system named is Cenchrus americanus. Description: Induction of systemic acquired resistance against Sclerospora graminicola in Cenchrus americanus cultivar 7042S assessed as protection against downy mildew disease at 6 g/kg applied to foliar of 7 day old seedling inoculated on day 2 measured on day 30 in field conditions (reference value: 2%). The class given is functional.
Assay [24] relates to Cenchrus americanus. The assay is described as follows: Induction of systemic acquired resistance against Sclerospora graminicola in Cenchrus americanus cultivar 7042S assessed as protection against downy mildew disease at 6 g/kg applied to seeds prior to sowing and to foliar of 7 day old seedling inoculated on day 2 measured on day 30 in field conditions (reference value: 3%). The class given is functional.

The subject of assay [25] is Cenchrus americanus. Description: Induction of systemic acquired resistance against Sclerospora graminicola in Cenchrus americanus cultivar 7042S assessed as protection against downy mildew disease at 6 g/kg applied to seeds prior to sowing followed by inoculation on 2 day old seedling measured on day 30 in field conditions (reference value: 3%). The assay is classed as functional.

For assay [26], the system named is Cenchrus americanus. Description: Induction of systemic acquired resistance against Sclerospora graminicola in Cenchrus americanus cultivar 7042S assessed as protection against downy mildew disease at 6 g/kg applied to seeds prior to sowing followed by inoculation on 2 day old seedling measured on day 30 in green house condition(reference value: 3%). The class given is functional.

Take `O=C(O)CCCC[C@@H]1SC[C@@H]2NC(=O)N[C@@H]21` [BIOTIN]: the Activity in the assay on Cenchrus americanus [1] came out at 51%; in the assay on Cenchrus americanus [3] it was 91%. For the same compound, the outcome with Cenchrus americanus [2] was Active.
Turning to `O=C(O)c1cccnc1` [NIACIN], the Activity with Cenchrus americanus [4] was determined as 65%; in the assay on Cenchrus americanus [5] it was 60%; in the assay with Cenchrus americanus [6] it was 1306 kg/ha; in the assay with Cenchrus americanus [7], 4 cm; with Cenchrus americanus [8], 11.8 cm; in the assay on Cenchrus americanus [11] it was 66 cm. Also, the Activity with Cenchrus americanus [12] was found to be 71%; in the assay with Cenchrus americanus [13], 69%; in the assay with Cenchrus americanus [14], 63%; in the assay on Cenchrus americanus [15], 10.97 g; in the assay on Cenchrus americanus [16], 63%; in the assay with Cenchrus americanus [17] it was 63%. Besides, the Activity was determined as 63% in the assay on Cenchrus americanus [18]; 56% with Cenchrus americanus [19]; 51% with Cenchrus americanus [20]; 45% in the assay with Cenchrus americanus [21]; 63% in the assay with Cenchrus americanus [1]; 92% with Cenchrus americanus [3]. Also, the result in the assay with Cenchrus americanus [9] was Active. Moreover, in the assay on Cenchrus americanus [10], the Time stood at 42 days. The Vigour_index in the assay with Cenchrus americanus [22] is reported as 1217.
Consider `Cc1ncc(CO)c(CO)c1O` [PYRIDOXINE], for which the Activity in the assay with Cenchrus americanus [1] is reported as 44%; with Cenchrus americanus [3], 91%. Further, the outcome in the assay with Cenchrus americanus [2] was Active.
On to `COCC(=O)N(c1c(C)cccc1C)C(C)C(=O)OC` (stereo not given) [METALAXYL], for which the Activity with Cenchrus americanus [23] is 91%; in the assay on Cenchrus americanus [24], 92%; in the assay on Cenchrus americanus [25] it was 92%; with Cenchrus americanus [26], 92%.
`Cc1cc2nc3c(=O)[nH]c(=O)nc-3n(C[C@H](O)[C@H](O)[C@H](O)CO)c2cc1C` [RIBOFLAVIN]: the Activity with Cenchrus americanus [4] is on record as 67%; in the assay on Cenchrus americanus [5], 61%; with Cenchrus americanus [6] it was 1281 kg/ha; with Cenchrus americanus [7] it was 3.9 cm; in the assay on Cenchrus americanus [8], 11.4 cm; in the assay with Cenchrus americanus [11], 62 cm. The Activity turned out to be 69% in the assay with Cenchrus americanus [12]; 64% in the assay on Cenchrus americanus [13]; 63% in the assay with Cenchrus americanus [14]; 9.5 g in the assay with Cenchrus americanus [15]; 61% in the assay on Cenchrus americanus [16]; 63% with Cenchrus americanus [17]. For the same compound, the Activity is 63% in the assay with Cenchrus americanus [18]; 55% in the assay on Cenchrus americanus [19]; 50% with Cenchrus americanus [20]; 43% in the assay on Cenchrus americanus [21]; 62% in the assay with Cenchrus americanus [1]; 92% in the assay with Cenchrus americanus [3]. For the same compound, the outcome with Cenchrus americanus [9] was Active. Further, the Time with Cenchrus americanus [10] is 43 days.
As to `CC1(S(=O)(=O)[O-])CC(=O)c2ccccc2C1=O.[Na+]` (stereo not given) [MENADIONE SODIUM BISULPHITE], the Activity worked out at 72% with Cenchrus americanus [4]; 66% in the assay on Cenchrus americanus [5]; 1328 kg/ha in the assay with Cenchrus americanus [6]; 4.1 cm in the assay with Cenchrus americanus [7]; 12 cm in the assay with Cenchrus americanus [8]; 68 cm in the assay with Cenchrus americanus [11]. Also, the Activity is reported as 79% with Cenchrus americanus [12]; 77% in the assay on Cenchrus americanus [13]; 74% in the assay on Cenchrus americanus [14]; 11.74 g in the assay on Cenchrus americanus [15]; 68% in the assay on Cenchrus americanus [16]; 74% with Cenchrus americanus [17]. The Activity amounted to 73% in the assay with Cenchrus americanus [18]; 65% with Cenchrus americanus [19]; 51% with Cenchrus americanus [20]; 46% in the assay with Cenchrus americanus [21]; 73% with Cenchrus americanus [1]; 93% in the assay on Cenchrus americanus [3]. Also, the result in the assay with Cenchrus americanus [9] was Active. Further, the Time with Cenchrus americanus [10] was determined as 40 days. Also, the Vigour_index in the assay with Cenchrus americanus [22] was 1312.
On to `Nc1nc(=O)c2nc(CNc3ccc(C(=O)N[C@@H](CCC(=O)O)C(=O)O)cc3)cnc2[nH]1` [FOLIC ACID], for which the Activity in the assay with Cenchrus americanus [1] is on record as 42%; in the assay with Cenchrus americanus [3], 90%. Moreover, the result with Cenchrus americanus [2] was Active.

(Values after ChEMBL document CHEMBL3044918, “Ability of vitamins to induce downy mildew disease resistance and growth promotion in pearl millet” (2007).)
